Measured values reported in patent US12306176B2, “Microfluidic bi-directional migration assay” (Ohio State Innovation Foundation, priority 2017, dated 2025).

Tested on: MDA-MB-231 cells
Experiment: Microfluidic bi-directional migration (MBDM) assay, mean migration speed and persistence
Format: cell-based, human
Text: To quantify the effects of iEF treatment on directed cell migration speed and persistence, a custom microfluidic bi-directional microtrack (MBDM) assay was developed that enables real-time monitoring with time-lapse microscopy of cell motility.
In this study, the EF sensing mechanisms of breast cancer cells in response to asymmetric iEFs (<100 μV/cm) was investigated. Using a MBDM assay, changes in the speed and persistence of spontaneously migrating MDA-MB-231 breast cancer cells were observed. This cell type was selected for these studies because it is a putative metastatic breast cancer cell line that is also responsive to gradients of a chemoattractant such as EGF (Wang S J, et al. (2004) Exp Cell Res 300 (1):180-189; Wu A, et al. (2013) Proc Natl Acad Sci U S A 110(40):16103-16108). […] This configuration enables direct comparison of cell movement in response to iEFs applied primarily with the direction of cell migration (“parallel”) or against the direction of cell migration (“anti-parallel”) within the same microfluidic device. Here, the field direction is defined as the direction that has the higher peak magnitude, as well as higher time-average field strength.
To calculate persistence, the following protocol was followed for each cell tracked in a microtrack of the MBDM assay. A cell starts at position Pt at time t. After a single time increment, dt, the cell moves to a new position, Pt+dt. The distance traveled during this time is the absolute difference in the two positions denoted as Li: Li=|Pt+dt−Pt|
The total distance traveled is then the sum of all distances traveled during N time increments denoted as Lt. Additionally, the total time of travel is the number of time increments multiplied by the size of the time increments denoted as Tt.
The displacement is simply the difference between the final and initial position: Ld=|PFinal−PInitial|
The MBDM assay was designed to have three ports separated by 700 μm long arrays of parallel microtracks (FIG. 1D). The dimension of each port was 50 mm×15 mm. Cells were seeded in the center port and the top and bottom ports were designated as cell collection port and/or chemokine source reservoir port depending on the experimental condition. Microchannels were designed to have a square cross-section of 20 μm×20 μm. The cross-section dimensions were on the same order as the size of single cells and mimic the dimensions of pre-existing microtracks available to cells in-vivo (Kraning-Rush C M, et al. (2013) lntegr Biol (Camb). 5 (3):606-616). Moreover, these migratory tracks are representative of physiologically relevant matrix metalloproteinase independent cancer-cell migration mode during metastasis (Friedl P & Alexander S (2011) Cell 147 (5):992-1009; Wolf K, et al. (2009) Semin Cell Dev Biol. 20 (8):931-941; Friedl P & Wolf K (2003) Nat Rev Cancer. 3 (5):362; Wolf K, et al. (2007) Nat Cell Biol. 9 (8):893; Wolf K, et al. (2003) J Cell Biol. 160 (2):267-277). The bi-directional design of this assay allows cells to migrate in either direction from the seeding port and provides a better understanding and quantification of the directional bias of external cues such as chemokine gradients and the directional effects of applied iEFs. The large ports for cell seeding ensure uniform seeding density, excellent cell viability, and repeatability.
Cells were washed in culture plates with 1×PBS solution, treated with 0.05% trypsin-EDTA solution (Sigma-Aldrich), and then counted using a hemocytometer. Cells (2×10^5) suspended in migration media were seeded in the middle port (seeding port) with an extremely small flow from the collection ports to the seeding port, which equilibrated in less than 15 minutes. The cells inside the devices were then incubated for 12 hours in migration media following which the media was aspirated and replaced with new media based on the experimental conditions. […]

[1] = MK2206 2.5 μM alone, no EGF, no iEF
[2] = MK2206 2.5 μM alone, under EGF gradient (25 ng/mL)
[3] = MK2206 2.5 μM plus anti-parallel iEFs, under EGF gradient
[4] = MK2206 2.5 μM plus parallel iEFs, under EGF gradient

Structure (SMILES): NC1(c2ccc(-c3nc4ccn5c(=O)[nH]nc5c4cc3-c3ccccc3)cc2)CCC1 [MK2206]
- increase of mean migration speed compared to untreated controls [1]: 9%
- reduction of persistence compared to untreated controls [1]: 31%
- reduction of persistence below EGF-gradient conditions (MK2206 2.5 μM alone, under EGF gradient): 9%
- mean migration speed [2]: 0.36 μm/min
- reduction of mean migration speed compared to EGF-gradient condition [2]: 16%
- persistence compared to MK2206 treatment alone (MK2206 2.5 μM co-applied with anti-parallel iEFs, no EGF): significantly increased
- average migration speed compared to untreated controls (MK2206 2.5 μM co-applied with iEFs, parallel or anti-parallel, no EGF): comparable modest decrease
- mean migration speed [3]: 0.31 μm/min
- reduction of mean migration speed below EGF controls [3]: 28%
- reduction of persistence from the EGF control [3]: 26%
- mean migration speed [4]: 0.26 μm/min
- reduction of mean migration speed below EGF controls [4]: 40%
- reduction of persistence from the EGF control [4]: 19%
- directional response of migration speed to iEF (MK2206 treatment, no exogenous EGF gradient): nullified
